Measured values: publication PMC2360155, “Novel retinoic acid metabolism blocking agents have potent inhibitory activities on human breast cancer cells and tumour growth” (British Journal of Cancer, 2007)

Assays:
T47D cells [1] = test: Cell cycle analysis by flow cytometry (PI), T47D; type: cell-based, human; settings: 5 μM, 6 days (4-HPR 4 days)
Method: MCF-7 and T47D cells were plated in T-25 flasks and allowed to adhere for about 18 h. The cells were then synchronised by growing them in low-serum OPTI-MEM I medium for 2 days. […] After 6-day treatment, the cells were trypsinised, washed twice with PBS, centrifuged at 2500 r.p.m. to obtain a cell pellet. The cells (about 1–2 × 10^6) were fixed with 3 ml of 70% ethanol (by adding drop-wise and taking care that the cells are not clumped together). Cells were kept at −20°C until further analysis (at least overnight). Next, cells (∼1–2 × 10^6) were stained with 1 ml of propidium iodide (PI) (50 μg ml^−1)/RNase (100 μg ml^−1) solution and after about half an hour the fluorescence of stained nuclei (15 000 events) was analysed by flow cytometry (Becton Dickinson FACScan Instrument and quantification by Modfit LT version 3.1 software) with excitation wavelength of 488 nm. The percentage of G1, S, G2/M and sub-G1 (apoptotic cells) in the population of treated and untreated cells were determined.

MDA-MB-231 cells = system: MDA-MB-231 cells; parameters: method as in Patel et al. (2004); settings: inhibition of cell proliferation by 50%; ref Patel et al. (2004); read-out: Cellular IC50, MDA-MB-231; cited from earlier work
T47D cells [2] = test: TUNEL apoptosis assay, T47D; type: cell-based, human; settings: 5 μM; 6 days; control about 1.5%
Excerpt: (§1) The cells were rinsed with PBS and then the stained-labelled apoptotic cells were mounted using DAPI (diamidino-2-phenylindole 2HCl)-glycerol and visualised with a fluorescent microscope using two filters (1) for TUNEL stained cells, and (2) for DAPI stained cells, which represents all the cells (nuclei). Fluorescent microscope model was Nikon, Eclipse E400 and the software was SPOT advanced version 3.5.5 by Diagnostic Instruments Inc. (Sterling Heights, MI, USA).
(§2) Figure 6 Graphs showing apoptosis induced in (A) MCF-7 and (B) T47D cells as determined by TUNEL. […] TUNEL-stained apoptotic cells were counted against the DAPI stained cells to obtain percentage apoptosis. The experiments were repeated thrice with similar results. Error bars show s.e.m of three different fields of treated cells, statistically significant ^*P<0.01 and ^**P<0.001 vs control.

MCF-7 cells [3] = system: MCF-7 cells; parameters: method as in Patel et al. (2004); settings: inhibition of cell proliferation by 50%; ref Patel et al. (2004); read-out: Cellular IC50, MCF-7; cited from earlier work
cyclin D1 = test: Western blotting for cyclin D1 in MCF-7 cells; type: cell-based, human; settings: 6 days (4HPR 4 days)
Method: At the end of the treatment, cells were scrapped and collected by washing with ice-cold PBS in a centrifuge tube. Cells were centrifuged at 2500 r.p.m. for 10 min, the pellet was again washed with ice-cold PBS and centrifuged. The cell pellet was then suspended in chilled cell lysis buffer (0.1 M Tris–HCl, 0.5% Triton X-100, protease inhibitor cocktail) and sonicated on ice for 10–15 s. The homogenate was kept on ice for 30 min and then centrifuged at 13 000 r.p.m. for 30 min. The supernatant was used as cell lysate. The cell lysates were stored at −80°C. Protein concentration of the cell lysates was determined using Bio-Rad protein assay reagents.
Protein lysates from MCF-7 and T47D cells were subjected to sodium dodecyl sulphate–polyacrylamide gel electrophoresis (SDS–PAGE) and immunoblotted for different proteins. […] Immunoreactive bands were visualised using the enhanced chemiluminescence detection reagents and analysis system (Amersham Bioscences) according to the manufacturer's instructions and quantified by densitometry using ImageQuant software version 5.
Figure 5 Western blotting of whole-cell lysates of treated MCF-7 and T47D cells for the expression of Cyclin D1. […] Numbers below the blot show fold decrease in expression of the protein as analysed by ImageQuant densitometry analysis. […]

MCF-7 cells [4] = test: TUNEL apoptosis assay, MCF-7; type: cell-based, human; settings: 5 μM; 6 days; control about 1.5%
Excerpt: as §1, §2

CC1=C(/C=C/C(C)=C/C=C/C(C)=C/C(=O)Nc2ccc(O)cc2)C(C)(C)CCC1 [Compound 4-HPR, 4-Hydroxyphenyl retinamide, reference compound]
G2/M (%) (T47D cells [1]): 16.75±4.39% | Go/G1 (%) (T47D cells [1]): 76.94±3.47% | S (%) (T47D cells [1]): 6.32±0.93% | Sub-G1 (%) (T47D cells [1]): 30.25±6.66% | IC50 (MDA-MB-231 cells): 1400 nM | Induction of apoptosis (TUNEL), T47D (T47D cells [2]): 20–25% | IC50 (MCF-7 cells [3]): 148 nM | Decrease of cyclin D1 protein expression compared with untreated control (cyclin D1): > 80% | Induction of apoptosis (TUNEL), MCF-7 (MCF-7 cells [4]): 20–25%
